Measured values as given in publication PMC8843100, “Development of newly synthesised quinazolinone-based CDK2 inhibitors with potent efficacy against melanoma” (Journal of Enzyme Inhibition and Medicinal Chemistry, 2022).

How the values were obtained:
[1] = system: 786-0; test: NCI-60 single dose screen, sulforhodamine B; type: cell-based, human; settings: Renal cancer 786-0; single dose 10^−5 M
Outline: (§1)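 Sulforhodamine B assay at one dose (10 µM). Cells grew 1 day, were treated, incubated 2 days more, then fixed and stained; inhibition is relative to untreated cells and time-zero density.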

[2] = system: A498; test: NCI-60 single dose screen, sulforhodamine B; type: cell-based, human; settings: Renal cancer A498; single dose 10^−5 M
Outline: as §1

[3] = system: A549/ATCC; test: NCI-60 single dose screen, sulforhodamine B; type: cell-based, human; settings: Non-small cell lung cancer A549/ATCC; single dose 10^−5 M
Outline: as §1

[4] = system: ACHN; test: NCI-60 single dose screen, sulforhodamine B; type: cell-based, human; settings: Renal cancer ACHN; single dose 10^−5 M
Outline: as §1

[5] = system: CAKI-1; test: NCI-60 single dose screen, sulforhodamine B; type: cell-based, human; settings: Renal cancer CAKI-1; single dose 10^−5 M
Outline: as §1

[6] = system: CCRF-CEM; test: NCI-60 single dose screen, sulforhodamine B; type: cell-based, human; settings: Leukaemia CCRF-CEM; single dose 10^−5 M
Outline: as §1

[7] = system: COLO 205; test: NCI-60 single dose screen, sulforhodamine B; type: cell-based, human; settings: Colon cancer COLO 205; single dose 10^−5 M
Outline: as §1

[8] = system: DU-145; test: NCI-60 single dose screen, sulforhodamine B; type: cell-based, human; settings: Prostate cancer DU-145; single dose 10^−5 M
Outline: as §1

[9] = system: EKVX; test: NCI-60 single dose screen, sulforhodamine B; type: cell-based, human; settings: Non-small cell lung cancer EKVX; single dose 10^−5 M
Outline: as §1

[10] = system: K-562; test: NCI-60 single dose screen, sulforhodamine B; type: cell-based, human; settings: Leukaemia K-562; single dose 10^−5 M
Outline: as §1

[11] = system: LOX IMVI; test: NCI-60 single dose screen, sulforhodamine B; type: cell-based, human; settings: Melanoma LOX IMVI; single dose 10^−5 M
Outline: as §1

[12] = system: M14; test: NCI-60 single dose screen, sulforhodamine B; type: cell-based, human; settings: Melanoma M14; single dose 10^−5 M
Outline: as §1

[13] = system: NCI-H226; test: NCI-60 single dose screen, sulforhodamine B; type: cell-based, human; settings: Non-small cell lung cancer NCI-H226; single dose 10^−5 M
Outline: as §1

[14] = system: NCI-H23; test: NCI-60 single dose screen, sulforhodamine B; type: cell-based, human; settings: Non-small cell lung cancer NCI-H23; single dose 10^−5 M
Outline: as §1

[15] = system: OVCAR-4; test: NCI-60 single dose screen, sulforhodamine B; type: cell-based, human; settings: Ovarian cancer OVCAR-4; single dose 10^−5 M
Outline: as §1

[16] = system: OVCAR-5; test: NCI-60 single dose screen, sulforhodamine B; type: cell-based, human; settings: Ovarian cancer OVCAR-5; single dose 10^−5 M
Outline: as §1

[17] = system: SF-539; test: NCI-60 single dose screen, sulforhodamine B; type: cell-based, human; settings: CNS cancer SF-539; single dose 10^−5 M
Outline: as §1

[18] = system: SK-MEL-28; test: NCI-60 single dose screen, sulforhodamine B; type: cell-based, human; settings: Melanoma SK-MEL-28; single dose 10^−5 M
Outline: as §1

[19] = system: SK-MEL-2; test: NCI-60 single dose screen, sulforhodamine B; type: cell-based, human; settings: Melanoma SK-MEL-2; single dose 10^−5 M
Outline: as §1

[20] = system: SK-MEL-5; test: NCI-60 single dose screen, sulforhodamine B; type: cell-based, human; settings: Melanoma SK-MEL-5; single dose 10^−5 M
Outline: as §1

[21] = system: SW-620; test: NCI-60 single dose screen, sulforhodamine B; type: cell-based, human; settings: Colon cancer SW-620; single dose 10^−5 M
Outline: as §1

[22] = system: TK-10; test: NCI-60 single dose screen, sulforhodamine B; type: cell-based, human; settings: Renal cancer TK-10; single dose 10^−5 M
Outline: as §1

[23] = system: UACC-257; test: NCI-60 single dose screen, sulforhodamine B; type: cell-based, human; settings: Melanoma UACC-257; single dose 10^−5 M
Outline: as §1

[24] = system: UO-31; test: NCI-60 single dose screen, sulforhodamine B; type: cell-based, human; settings: Renal cancer UO-31; single dose 10^−5 M
Outline: as §1

Compound | GI% at 10^−5 M [1] | GI% at 10^−5 M [2] | GI% at 10^−5 M [3] | GI% at 10^−5 M [4] | GI% at 10^−5 M [5] | GI% at 10^−5 M [6] | GI% at 10^−5 M [7] | GI% at 10^−5 M [8] | GI% at 10^−5 M [9] | GI% at 10^−5 M [10] | GI% at 10^−5 M [11] | GI% at 10^−5 M [12] | GI% at 10^−5 M [13] | GI% at 10^−5 M [14] | GI% at 10^−5 M [15] | GI% at 10^−5 M [16] | GI% at 10^−5 M [17] | GI% at 10^−5 M [18] | GI% at 10^−5 M [19] | GI% at 10^−5 M [20] | also measured
O=c1c2ccccc2nc(COc2ccccc2)n1NS(=O)(=O)c1ccc(Cl)cc1 [Compound 5c, 4-chloro-N-(4-oxo-2-(phenoxymethyl)quinazolin-3(4H)-yl)benzenesulfonamide] | – (– means GI < 10%) | 36.68% | 14.05% | – (– means GI < 10%) | 26.93% | – (– means GI < 10%) | – (– means GI < 10%) | – (– means GI < 10%) | 25.19% | 52.75% | 16.40% | 25.84% | 17.00% | 17.19% | – (– means GI < 10%) | – (– means GI < 10%) | 13.14% | 12.91% | 25.29% | – (– means GI < 10%) | GI% at 10^−5 M [21]: 30.94%; GI% at 10^−5 M [22]: – (– means GI < 10%); GI% at 10^−5 M [23]: – (– means GI < 10%); GI% at 10^−5 M [24]: 37.25%; melting point: 208 to 210 °C
COc1cc(C=Nn2c(COc3ccccc3)nc3ccccc3c2=O)ccc1O [Compound 6a, 3-((4-hydroxy-3-methoxybenzylidene)amino)-2-(phenoxymethyl)quinazolin-4(3H)-one] | – (– means GI < 10%) | – (– means GI < 10%) | – (– means GI < 10%) | – (– means GI < 10%) | – (– means GI < 10%) | – (– means GI < 10%) | – (– means GI < 10%) | – (– means GI < 10%) | – (– means GI < 10%) | – (– means GI < 10%) | – (– means GI < 10%) | – (– means GI < 10%) | – (– means GI < 10%) | – (– means GI < 10%) | – (– means GI < 10%) | – (– means GI < 10%) | – (– means GI < 10%) | – (– means GI < 10%) | – (– means GI < 10%) | – (– means GI < 10%) | GI% at 10^−5 M [21]: – (– means GI < 10%); GI% at 10^−5 M [22]: – (– means GI < 10%); GI% at 10^−5 M [23]: – (– means GI < 10%); GI% at 10^−5 M [24]: 15.75%; melting point: 191 to 193 °C
O=c1c2ccccc2nc(COc2ccccc2)n1N=CC=Cc1ccccc1 [Compound 6b, 2-(phenoxymethyl)-3-((3-phenylallylidene)amino)quinazolin-4(3H)-one] | – (– means GI < 10%) | – (– means GI < 10%) | – (– means GI < 10%) | – (– means GI < 10%) | – (– means GI < 10%) | 15.66% | – (– means GI < 10%) | – (– means GI < 10%) | 13.78% | – (– means GI < 10%) | 27.86% | – (– means GI < 10%) | – (– means GI < 10%) | – (– means GI < 10%) | 10.01% | – (– means GI < 10%) | – (– means GI < 10%) | – (– means GI < 10%) | – (– means GI < 10%) | – (– means GI < 10%) | GI% at 10^−5 M [21]: – (– means GI < 10%); GI% at 10^−5 M [22]: – (– means GI < 10%); GI% at 10^−5 M [23]: – (– means GI < 10%); GI% at 10^−5 M [24]: 10.2%; melting point: 211 to 213 °C
